The record followed here is ChEMBL document CHEMBL4321815, “Discovery of an Extremely Potent Thiazine-Based β-Secretase Inhibitor with Reduced Cardiovascular and Liver Toxicity at a Low Projected Human Dose” (J Med Chem, 2019).

The species named for experiment [1] is Canis familiaris. The experiment in a line: animal or person. Particulars: Canis lupus familiaris, Beagle. Type of experiment: functional, organism-based.
The subject of experiment [2] is Homo sapiens. In words: In vivo inhibition of BACE1 in human assessed as reduction in amyloidbeta level at 75 mg administered once daily relative to control. The experiment is classed as functional.
The test system of experiment [3] is Canis familiaris. In words: In vivo inhibition of BACE1 in po dosed Beagle dog assessed as plasma level causing 50% reduction in amyloidbeta42 level in CSF administered as single dose measured after 4 to 49 hrs. Type of experiment: functional, organism-based. Particulars: Canis lupus familiaris.
For experiment [4], the system named is Homo sapiens. The experiment in a line: In vivo inhibition of BACE1 in human assessed as reduction in amyloidbeta level at 40 mg administered once daily relative to control. Type of experiment: functional.

Consider `C[C@H]1OC[C@]2(c3cc(NC(=O)c4cnc(C(F)F)cn4)ccc3F)N=C(N)SC[C@H]12` [ELENBECESTAT], for which the concentration giving a half-maximal response (EC50) (commonly the concentration that produces a half-maximal response) is 0.0081 µM in the experiment listed under Canis familiaris [1] and 0.022 µM in the experiment with Canis familiaris [3]. Besides, the “inhibition (INH)” value with Homo sapiens [2] came out at 80%.
`CN1C(N)=N[C@](C)(c2cc(NC(=O)c3ccc(F)cn3)ccc2F)CS1(=O)=O` [VERUBECESTAT]: the “inhibition (INH)” value in the experiment on Homo sapiens [4] was 80%. Also, in the experiment with Canis familiaris [3], the EC50 was 0.034 µM.
